# Measured values taken from US20160158200A1, “Combinations of Hepatitis C Virus Inhibitors” (priority 2013, published 2016).
# Tested on: HCV genotype-1a variant with glutamine 30 changed to glutamate in the NS5A protein
# Format: cell-based
# Details: test compound titrated with BMS-790052 fixed at 200 nM; genotype 1a Q30E replicon
# Outline: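 Synergy was assessed by combining several fixed amounts of an NS5A-targeting compound with a titration of the second compound of interest.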
row,Structure (SMILES),Fold-Synergistic 1a (Q30E) [fold]
1,CC(C)CC(=O)N1[C@@H]2C[C@@H]2C[C@H]1c1nc(-c2ccc(-c3ccc(-c4c[nH]c([C@@H]5C[C@H]6C[C@H]6N5C(=O)CC(C)C)n4)cc3)cc2)c[nH]1 [Compound P-50],<10
2,CC(C)CC(=O)N1C[C@@H](C)C[C@H]1c1nc(-c2ccc(-c3ccc(-c4c[nH]c([C@@H]5C[C@H](C)CN5C(=O)CC(C)C)n4)cc3)cc2)c[nH]1 [Compound P-51],<10
3,CC(C)C(c1ncc(-c2ccc(-c3ccc(-c4cnc(C(C(C)C)N5CCCCC5=O)[nH]4)cc3)cc2)[nH]1)N1CCCCC1=O (centres unmarked) [Compound P-52],>10
4,COC(=O)N[C@H]1CCN([C@H](c2ncc(-c3ccc(-c4ccc(-c5cnc([C@H](C(C)C)N6CC[C@H](NC(=O)OC)C6=O)[nH]5)cc4)cc3)[nH]2)C(C)C)C1=O.O=C(O)C(F)(F)F.O=C(O)C(F)(F)F [Compound P-53],<10
5,CC(C)CC(=O)N[C@@H](c1nc(-c2ccc(-c3ccc(-c4c[nH]c([C@H](NC(=O)CC(C)C)C(C)C)n4)cc3)cc2)c[nH]1)C(C)C [Compound P-54.1],>100
6,CC(C)CC(=O)N(C)C(c1ncc(-c2ccc(-c3ccc(-c4cnc(C(C(C)C)N(C)C(=O)CC(C)C)[nH]4)cc3)cc2)[nH]1)C(C)C (centres unmarked) [Compound P-54],>100
7,CC(C)[C@H](NC(=O)CC(C)(C)C)c1ncc(-c2ccc(-c3ccc(-c4cnc([C@@H](NC(=O)CC(C)(C)C)C(C)C)[nH]4)cc3)cc2)[nH]1 [Compound P-56],>100
8,CC(C)[C@H](NC(=O)CC12CC3CC(CC(C3)C1)C2)c1ncc(-c2ccc(-c3ccc(-c4cnc([C@@H](NC(=O)CC56CC7CC(CC(C7)C5)C6)C(C)C)[nH]4)cc3)cc2)[nH]1 [Compound P-57],>100
9,CC(C)[C@H](NC(=O)CC1CCOCC1)c1ncc(-c2ccc(-c3ccc(-c4cnc([C@@H](NC(=O)CC5CCOCC5)C(C)C)[nH]4)cc3)cc2)[nH]1 [Compound P-58],>10
10,CC(C)[C@H](NC(=O)C1CCOCC1)c1ncc(-c2ccc(-c3ccc(-c4cnc([C@@H](NC(=O)C5CCOCC5)C(C)C)[nH]4)cc3)cc2)[nH]1 [Compound P-59],>100
11,CC(C)[C@H](NC(=O)C12CC3CC(CC(C3)C1)C2)c1ncc(-c2ccc(-c3ccc(-c4cnc([C@@H](NC(=O)C56CC7CC(CC(C7)C5)C6)C(C)C)[nH]4)cc3)cc2)[nH]1 [Compound P-60],>100
12,CC[C@H](C(=O)N[C@H](c1ncc(-c2ccc(-c3ccc(-c4cnc([C@@H](NC(=O)[C@@H](CC)c5ccccc5)C(C)C)[nH]4)cc3)cc2)[nH]1)C(C)C)c1ccccc1 [Compound P-61],>100
13,CC(C)[C@H](NC(=O)[C@@H](C)c1ccccc1)c1ncc(-c2ccc(-c3ccc(-c4cnc([C@@H](NC(=O)[C@@H](C)c5ccccc5)C(C)C)[nH]4)cc3)cc2)[nH]1 [Compound P-62],>100
14,CC(C)[C@H](NC(=O)c1ccccc1F)c1ncc(-c2ccc(-c3ccc(-c4cnc([C@@H](NC(=O)c5ccccc5F)C(C)C)[nH]4)cc3)cc2)[nH]1 [Compound P-63],>100
15,CC(C)[C@H](NC(=O)[C@H](C)c1ccccc1)c1ncc(-c2ccc(-c3ccc(-c4cnc([C@@H](NC(=O)[C@H](C)c5ccccc5)C(C)C)[nH]4)cc3)cc2)[nH]1 [Compound P-64],>100
16,CC(C)[C@H](NC(=O)C(C)(C)Oc1ccc(Cl)cc1)c1ncc(-c2ccc(-c3ccc(-c4cnc([C@@H](NC(=O)C(C)(C)Oc5ccc(Cl)cc5)C(C)C)[nH]4)cc3)cc2)[nH]1 [Compound P-65],>100

row,Structure (SMILES),Fold-Synergistic 1a (Q30E) [fold]
1,CC(C)[C@H](NC(=O)[C@@H]1CCCO1)c1ncc(-c2ccc(-c3ccc(-c4cnc([C@@H](NC(=O)[C@@H]5CCCO5)C(C)C)[nH]4)cc3)cc2)[nH]1 [Compound P-66],>100
2,CC(C)[C@H](NC(=O)C(C)(C)CO)c1ncc(-c2ccc(-c3ccc(-c4cnc([C@@H](NC(=O)C(C)(C)CO)C(C)C)[nH]4)cc3)cc2)[nH]1 [Compound P-67],>100
3,CCC(C)(C)C(=O)N[C@H](c1ncc(-c2ccc(-c3ccc(-c4cnc([C@@H](NC(=O)C(C)(C)CC)C(C)C)[nH]4)cc3)cc2)[nH]1)C(C)C [Compound P-68],>100
4,COC(C)(C)C(=O)N[C@H](c1ncc(-c2ccc(-c3ccc(-c4cnc([C@@H](NC(=O)C(C)(C)OC)C(C)C)[nH]4)cc3)cc2)[nH]1)C(C)C [Compound P-69],>100
5,COCC(C)(C)C(=O)N[C@H](c1ncc(-c2ccc(-c3ccc(-c4cnc([C@@H](NC(=O)C(C)(C)COC)C(C)C)[nH]4)cc3)cc2)[nH]1)C(C)C [Compound P-70],>100
6,CC(C)[C@H](NC(=O)C(C)(C)O)c1ncc(-c2ccc(-c3ccc(-c4cnc([C@@H](NC(=O)C(C)(C)O)C(C)C)[nH]4)cc3)cc2)[nH]1 [Compound P-71],>100
7,CC(C)[C@H](NC(=O)C(C)(C)CF)c1ncc(-c2ccc(-c3ccc(-c4cnc([C@@H](NC(=O)C(C)(C)CF)C(C)C)[nH]4)cc3)cc2)[nH]1 [Compound P-72],>100
8,CC(C)[C@H](NC(=O)C1(CF)CC1)c1ncc(-c2ccc(-c3ccc(-c4cnc([C@@H](NC(=O)C5(CF)CC5)C(C)C)[nH]4)cc3)cc2)[nH]1 [Compound P-73],>100
9,COCC1(C(=O)N[C@H](c2ncc(-c3ccc(-c4ccc(-c5cnc([C@@H](NC(=O)C6(COC)CCC6)C(C)C)[nH]5)cc4)cc3)[nH]2)C(C)C)CCC1 [Compound P-74],>100
10,CO[C@@H](C(=O)N[C@H](c1ncc(-c2ccc(-c3ccc(-c4cnc([C@@H](NC(=O)[C@H](OC)c5ccccc5)C(C)C)[nH]4)cc3)cc2)[nH]1)C(C)C)c1ccccc1 [Compound P-75],>100
11,Cc1cc(CC(=O)N[C@H](c2ncc(-c3ccc(-c4ccc(-c5cnc([C@@H](NC(=O)Cc6cc(C)no6)C(C)C)[nH]5)cc4)cc3)[nH]2)C(C)C)on1 [Compound P-76],>10
12,CC(C)[C@H](NC(=O)Cc1noc2ccccc12)c1ncc(-c2ccc(-c3ccc(-c4cnc([C@@H](NC(=O)Cc5noc6ccccc56)C(C)C)[nH]4)cc3)cc2)[nH]1 [Compound P-77],>100
13,CC(C)[C@H](NC(=O)Cc1cccs1)c1ncc(-c2ccc(-c3ccc(-c4cnc([C@@H](NC(=O)Cc5cccs5)C(C)C)[nH]4)cc3)cc2)[nH]1 [Compound P-78],>100
14,CC(C)[C@H](NC(=O)C1CCC(F)(F)CC1)c1ncc(-c2ccc(-c3ccc(-c4cnc([C@@H](NC(=O)C5CCC(F)(F)CC5)C(C)C)[nH]4)cc3)cc2)[nH]1 [Compound P-79],>100
15,CC(C)[C@H](NC(=O)C1(C(F)(F)F)CCCC1)c1ncc(-c2ccc(-c3ccc(-c4cnc([C@@H](NC(=O)C5(C(F)(F)F)CCCC5)C(C)C)[nH]4)cc3)cc2)[nH]1 [Compound P-80],>100
16,CC(C)[C@H](NC(=O)CCC(C)(C)C)c1ncc(-c2ccc(-c3ccc(-c4cnc([C@@H](NC(=O)CCC(C)(C)C)C(C)C)[nH]4)cc3)cc2)[nH]1 [Compound P-81],>100
